Our source for the EC50 values is patent US9556229B2, “Modification of peptides using a bis(thioether)arylbridge approach” (priority 2012, dated 2017).

SMILES strings stand for the structures. Starred links: 1 amine or outer side, 2 acyl side, 3 side chain; linkers in the order of their positions; H or OH if unused. Non-standard residues stand in square brackets, D forms with d. Residues, ends and D or L forms follow the SMILES beside them. ξ: configuration not given here. Ala(9-anthryl) = N[C@@H](Cc1c2ccccc2cc2ccccc12)C(=O)O; Pro(4R-Bn) = O=C(O)[C@@H]1C[C@@H](Cc2ccccc2)CN1; Bip = N[C@@H](Cc1ccc(-c2ccccc2)cc1)C(=O)O; Dip = N[C@H](C(=O)O)C(c1ccccc1)c1ccccc1; 1Nal = N[C@@H](Cc1cccc2ccccc12)C(=O)O; 2Nal = N[C@@H](Cc1ccc2ccccc2c1)C(=O)O; NMePhg = CN[C@H](C(=O)O)c1ccccc1; Tic = O=C(O)[C@@H]1Cc2ccccc2CN1; Cysteamide = C(CS[*:3])N[*:1]; Phg = N[C@H](C(=O)O)c1ccccc1; Tle = CC(C)(C)[C@H](N)C(=O)O; ξDisc = O=C(O)C1NCc2ccccc21; NMeA = CN[C@@H](C)C(=O)O

Assay [1] concerns MCF-7 breast cancer cell line. The assay can be described thus: Cell viability, MCF-7, PrestoBlue assay. It counts as cell-based. To be noted: NA = not active. The protocol: To test our theory we decided to focus on Smac multimers. First, we synthesized a small library of Smac compounds (see, Tables 3 and 4) varying in position 4 substituents having general structure N-MeAla-Tle-4-(trans-Bn)-Pro-Xaa-NHCH2CH2—SH (SEQ ID NO:38), which were tested in vitro using MDA-MB-231 and MCF-7 breast cancer cell lines and PrestoBlue™ assay (Invitrogen).

In assay [2] the test system is MDA-MB-231 breast cancer cell line.

As for `CN[C@@H](C)C(=O)N[C@H](C(=O)N1C[C@H](Cc2ccccc2)C[C@H]1C(=O)N[C@@H](Cc1c[nH]c2ccccc12)C(=O)NCCS)C(C)(C)C` [SMAC19, N^MeAla-Tle-(4-Bzl)Pro-Trp-NHCH2CH2SH] (H-[NMeA][Tle][Pro(4R-Bn)]W-Cysteamide; N-terminus assumed), the EC50 is 27.6 ± 1.8 µM in assay [1] and 36.7 ± 3.2 µM in assay [2]. For `CN[C@@H](C)C(=O)N[C@H](C(=O)N1C[C@H](Cc2ccccc2)C[C@H]1C(=O)N1Cc2ccccc2C[C@H]1C(=O)NCCS)C(C)(C)C` [SMAC11, N^MeAla-Tle-(4-Bzl)Pro-Tic-NHCH2CH2SH] (H-[NMeA][Tle][Pro(4R-Bn)][Tic]-Cysteamide; N-terminus assumed), the concentration giving a half-maximal response (EC50) in assay [1] is 5.3 ± 0.6 µM; in assay [2], 13.3 ± 1.3 µM.

For the compound `CN[C@@H](C)C(=O)N[C@H](C(=O)N1C[C@H](Cc2ccccc2)C[C@H]1C(=O)N1c2ccccc2C[C@H]1C(=O)NCCS)C(C)(C)C` [SMAC5, N^MeAla-Tle-(4-Bzl)Pro-Idc-NHCH2CH2SH], the EC50 in assay [1] amounted to 477 ± 48.4 µM; in assay [2], 68.3 ± 4 µM. In assay [2], `CN[C@@H](C)C(=O)N[C@H](C(=O)N1C[C@H](Cc2ccccc2)C[C@H]1C(=O)N[C@@H](Cc1c2ccccc2cc2ccccc12)C(=O)NCCS)C(C)(C)C` [SMAC18, N^MeAla-Tle-(4-Bzl)Pro-Ant-NHCH2CH2SH] (H-[NMeA][Tle][Pro(4R-Bn)][Ala(9-anthryl)]-Cysteamide) gave an EC50 of 17.3 ± 1 µM. Turning to `CN[C@@H](C)C(=O)N[C@H](C(=O)N1C[C@H](Cc2ccccc2)C[C@H]1C(=O)N[C@H](C(=O)NCCS)c1ccccc1)C(C)(C)C` [SMAC1, N^MeAla-Tle-(4-Bzl)Pro-Phg-NHCH2CH2SH] (H-[NMeA][Tle][Pro(4R-Bn)][Phg]-Cysteamide; N-terminus assumed), the figures for the EC50 in assay [1] and in assay [2] were 31.2 ± 1.4 µM and 17.2 ± 6.4 µM, respectively. For `CN[C@@H](C)C(=O)N[C@H](C(=O)N1C[C@H](Cc2ccccc2)C[C@H]1C(=O)N[C@@H](Cc1cccc2ccccc12)C(=O)NCCSCc1cc(CSCCNC(=O)[C@H](Cc2cccc3ccccc23)NC(=O)[C@@H]2C[C@@H](Cc3ccccc3)CN2C(=O)[C@@H](NC(=O)[C@H](C)NC)C(C)(C)C)cc(CSCCNC(=O)[C@H](Cc2cccc3ccccc23)NC(=O)[C@@H]2C[C@@H](Cc3ccccc3)CN2C(=O)[C@@H](NC(=O)[C@H](C)NC)C(C)(C)C)c1)C(C)(C)C` [SMAC14-3X, (N^MeAla-Tle-(4-Bzl)Pro-^1Nal-NHCH2CH2S)3—(CH2)3Ph] the same measures were 120 ± 8.4 µM and 7.2 ± 1.5 µM. Taken in the same sequence, the figures for `CN[C@@H](C)C(=O)N[C@H](C(=O)N1C[C@H](Cc2ccccc2)C[C@H]1C(=O)N(C)[C@H](C(=O)NCCS)c1ccccc1)C(C)(C)C` [SMAC2, N^MeAla-Tle-(4-Bzl)Pro-N^MePhg-NHCH2CH2SH] (H-[NMeA][Tle][Pro(4R-Bn)][NMePhg]-Cysteamide; N-terminus assumed) were 43.6 ± 1.6 µM and 23.8 ± 4.5 µM. For the compound `CN[C@@H](C)C(=O)N[C@H](C(=O)N1C[C@H](Cc2ccccc2)C[C@H]1C(=O)N[C@@H](Cc1ccc(-c2ccccc2)cc1)C(=O)NCCS)C(C)(C)C` [SMAC17, N^MeAla-Tle-(4-Bzl)Pro-Bip-NHCH2CH2SH] (H-[NMeA][Tle][Pro(4R-Bn)][Bip]-Cysteamide; N-terminus assumed), the results for the EC50 in assay [1] and in assay [2] were 5.7 ± 0.9 µM and 10.6 ± 0.9 µM, respectively. As to `CN[C@@H](C)C(=O)N[C@H](C(=O)N1C[C@H](Cc2ccccc2)C[C@H]1C(=O)N[C@H](CC(=O)NCCS)Cc1ccccc1)C(C)(C)C` [SMAC10, N^MeAla-Tle-(4-Bzl)Pro-bhPhe-NHCH2CH2SH], the EC50 turned out to be 23.9 ± 2.1 µM in assay [1] and 29.7 ± 3.3 µM in assay [2]. Taken in the same sequence, the figures for `CN[C@@H](C)C(=O)N[C@H](C(=O)N1C[C@H](Cc2ccccc2)C[C@H]1C(=O)N[C@@H](Cc1ccccc1)C(=O)NCCS)C(C)(C)C` [SMAC8, N^MeAla-Tle-(4-Bzl)Pro-Phe-NHCH2CH2SH] were 33.3 ± 1.5 µM and 34.3 ± 6.7 µM. Taken in the same sequence, the figures for `CN[C@@H](C)C(=O)N[C@H](C(=O)N1C[C@H](Cc2ccccc2)C[C@H]1C(=O)N1Cc2ccccc2C1C(=O)NCCS)C(C)(C)C` (stereo partly drawn) [SMAC4, N^MeAla-Tle-(4-Bzl)Pro-Disc-NHCH2CH2SH] (H-[NMeA][Tle][Pro(4R-Bn)][ξDisc]-Cysteamide; N-terminus assumed) were 41.6 ± 3.7 µM and 47.1 ± 15.9 µM. On to `CN[C@@H](C)C(=O)N[C@H](C(=O)N1C[C@H](Cc2ccccc2)C[C@H]1C(=O)NC(CC(=O)NCCS)c1cccc2ccccc12)C(C)(C)C` (stereo partly drawn) [SMAC13, N^MeAla-Tle-(4-Bzl)Pro-bh^1NalGly-NHCH2CH2SH], for which the EC50 was determined as 12.3 ± 0.5 µM in assay [1] and 21.7 ± 1.3 µM in assay [2]. In the case of `CN[C@@H](C)C(=O)N[C@H](C(=O)N1C[C@H](Cc2ccccc2)C[C@H]1C(=O)NCc1ccc(CC(=O)NCCS)cc1)C(C)(C)C` [SMAC3, N^MeAla-Tle-(4-Bzl)Pro-Amp-NHCH2CH2SH], a half-maximal effect in assay [2] (EC50) was put at 14.3 ± 3.2 µM. `CN[C@@H](C)C(=O)N[C@H](C(=O)N1C[C@H](Cc2ccccc2)C[C@H]1C(=O)NC[C@H]1CC[C@H](C(=O)NCCS)CC1)C(C)(C)C` [SMAC7, N^MeAla-Tle-(4-Bzl)Pro-Amc-NHCH2CH2SH]: the EC50 was 86.3 ± 10.5 µM in assay [1] and 91.8 ± 16.3 µM in assay [2].

`CN[C@@H](C)C(=O)N[C@H](C(=O)N1C[C@H](Cc2ccccc2)C[C@H]1C(=O)N[C@@H](Cc1cccc2ccccc12)C(=O)NCCSCc1ccc(CSCCNC(=O)[C@H](Cc2cccc3ccccc23)NC(=O)[C@@H]2C[C@@H](Cc3ccccc3)CN2C(=O)[C@@H](NC(=O)[C@H](C)NC)C(C)(C)C)cc1)C(C)(C)C` [SMAC14-2X, (N^MeAla-Tle-(4-Bzl)Pro-^1Nal-NHCH2CH2S)2—(CH2)2Ph] registered an EC50 in assay [1] of 3.5 ± 1.6 µM. `CN[C@@H](C)C(=O)N[C@H](C(=O)N1C[C@H](Cc2ccccc2)C[C@H]1C(=O)N[C@@H](Cc1ccc(-c2ccccc2)cc1)C(=O)NCCSCc1ccc(CSCCNC(=O)[C@H](Cc2ccc(-c3ccccc3)cc2)NC(=O)[C@@H]2C[C@@H](Cc3ccccc3)CN2C(=O)[C@@H](NC(=O)[C@H](C)NC)C(C)(C)C)cc1)C(C)(C)C` [SMAC17-2X, (N^MeAla-Tle-(4-Bzl)Pro-Bip-NHCH2CH2S)2—(CH2)2Ph]: the EC50 in assay [1] was 1.7 ± 0.4 µM. On to `CN[C@@H](C)C(=O)N[C@H](C(=O)N1C[C@H](Cc2ccccc2)C[C@H]1C(=O)N[C@@H](Cc1ccc2ccccc2c1)C(=O)NCCS)C(C)(C)C` [SMAC15, N^MeAla-Tle-(4-Bzl)Pro-^2Nal-NHCH2CH2SH] (H-[NMeA][Tle][Pro(4R-Bn)][2Nal]-Cysteamide; N-terminus assumed), for which the values for the EC50 in assay [1] and in assay [2] were 10.5 ± 0.6 µM and 9.4 ± 0.5 µM, respectively.

On to `CN[C@@H](C)C(=O)N[C@H](C(=O)N1C[C@H](Cc2ccccc2)C[C@H]1C(=O)N[C@H](C(=O)NCCS)C(c1ccccc1)c1ccccc1)C(C)(C)C` [SMAC16, N^MeAla-Tle-(4-Bzl)Pro-Dpa-NHCH2CH2SH] (H-[NMeA][Tle][Pro(4R-Bn)][Dip]-Cysteamide; N-terminus assumed), for which the EC50 in assay [1] turned out to be 11.3 ± 1.8 µM; in assay [2] it was 9.4 ± 0.6 µM. For `CN[C@@H](C)C(=O)N[C@H](C(=O)N1C[C@H](Cc2ccccc2)C[C@H]1C(=O)N[C@@H](Cc1cccc2ccccc12)C(=O)NCCS)C(C)(C)C` [SMAC14, N^MeAla-Tle-(4-Bzl)Pro-^1Na1-NHCH2CH2SH] (H-[NMeA][Tle][Pro(4R-Bn)][1Nal]-Cysteamide; N-terminus assumed) the same measures were 13.4 ± 0.5 µM and 4.5 ± 1.1 µM.
